Patent US6589946B2, “Bile salt conjugates” (Galmed International Limited, priority 1998, dated 2003)

How the values were obtained:
[1] = Cholesterol crystal appearance in pooled native human gallbladder bile; conditions: 10 mM test compound; 37° C.; incubation period of 21 days; control bile showed crystals from day 2
Description: Native human gallbladder bile was obtained from cholesterol gallstone patients at cholecystectomy. Pooled bile from several patients was cholesterol enriched by incubation with dried cholesterol or by mixing with a concentrated model bile prior to use in experiments in order to facilitate crystallization.
When the test compound (at a concentration of 10 mM) was incubated with pooled native human gallbladder bile from patients with cholesterol gallstones, the results were as follows:
In the native human bile, from which cholesterol crystals were removed by prior ultracentrifugation for 2 hours, new cholesterol crystals were observed from day 2 of incubation (at 37° C.). Crystal numbers increased progressively reaching a peak of more than 150 crystals per microscopic field on day 14.

[2] = Oral PalC in hamsters, TLC of gallbladder bile; type: in vivo; conditions: per os 10-15 mg/animal/day
Description: Male, 6-7 weeks old hamsters weighing 79-83 g were maintained in an animal house with ad libidum access to water and chow.
Test hamsters were given per os by a special syringe 10-15 mg/animal/day of PalC dissolved in 1 ml of saline. Control animals were given an equivalent volume of saline alone. […] On the second day 4 hours after the application of the PalC in saline to the respective animals they were killed by an overdose of chloroform vapors. The abdomens were opened, the bile ducts were tied up, the gallbladders were excised and rinsed twice in saline. They were then placed on the top of conical plastic tubes and incised. The bile was collected at the bottom of the tubes.
Bile samples were centrifuged (Eppendorf centrifuge) for 5 min. at 2000 rpm. Debris was discarded and the supernatant was extracted according to the Folch procedure (chloroform: methanol 2:1). After partition with water, the lipid phase was analyzed by thin layer chromatography on silica gel 60 thin layer plates (Merck). The eluent was dichloromethane:methanol:acetic acid (100:5:1, v:v:v). Samples were compared with a true standard, Reference front (Rf) about 0.2 after development with I2 vapors.

[3] = Cholesterol crystal mass in model bile
Description: (§1) EYL, cholesterol and Na-TC mixtures were dissolved in CHCl3/CH3OH (2:1 v/v), dried under N2 at room temperature, lyophilized overnight and kept at −20°C. under argon until used. Model bile solutions were prepared by suspending the dried lipids in 150 mM NaCl, 1.5 mM disodium EDTA, 50 mM Tris-HCl pH 8.0 and incubating the suspension at 55° C. for 1 hour. The solubilized model biles were incubated, in sealed vials under argon, at 37° C. for the duration of the experiment. Aliquots from the models were examined daily.
Chemical analyses of cholesterol were performed on each sample on the last day of the experiment (day 14), as previously described (G. J. Somjen see above). The samples were collected from the micro wells, centrifuged in an Airfuge (Beckman) at 70,000 rpm for 5 min. Separate determinations were performed on the total sample (before centrifugation) as well as on the supernatant solution. The amount of cholesterol in the precipitated pellets was calculated by subtracting the amounts in the supernatant solutions from the total. […] The crystal mass was also measured spectrophotometrically as the OD difference between day 0 and day 14 of the incubation.
Cholesterol 15 mM, EYL […]. […]
All samples were incubated at 37° C. for 100 hrs. The difference in the optical density between 100 hrs. and 0 hrs.

[4] = Crystal growth rate (CGR) assay in model bile
Description: as §1
Crystal growth was monitored spectrophotometrically using a microplate reader (SPECTRA-STL, Austria) (G. J. Somjen, et al., J. Lipid Res., 38, […] 1048-1052). Aliquots (50 μl) of lipid solutions were mixed and shaken vigorously with equivalent volumes of Na-taurodeoxycholate (200 mM), in microplate wells. After 60 minutes at room temperature, the microplates were shaken again and the absorbance, at 405 nm, in each well was measured. Each model was prepared in triplicate and sampled in duplicate for measurement.
The data were collected and analyzed by an IBM compatible personal computer, and the optical density (OD), averaged for triplicate preparations, was calculated. A graph describing the averaged OD changes for each solution was plotted. The slope in the steepest region of the curve was determined by a linear regression fit to at least three measurements and defined as the CGR. CGR and OD differences between day 0 and day 14 were calculated for each model.

[5] = Crystal observation time (nucleation time) assay in model bile; conditions: for effect on nucleation time versus control solution: 20% of NaTC replaced by the specific conjugate
Description: Aliquots from each model bile were examined daily by polarized light microscopy. COT was defined as the initial time of detection of at least three cholesterol monohydrate crystals per microscopic field at 100 fold magnification.
Cholesterol 15 mM, EYL 30 ml, NaTC 150 mL. […] In the test solutions 20 mole percent of NaTC was replaced by an equimolar amount of each specific fatty acid/bile acid conjugate tested.

[6] = fed regularly to humans; cited from earlier work
[7] = 10% of NaTC replaced by PalC (B)
[8] = test compound added to whole model bile at 20% of bile salts (F)
[9] = 20% of Na taurocholate replaced by test compound, vs control model bile

## CCCCCCCCCCCCCCCC(=O)N[C@H]1CC[C@@]2(C)[C@@H](C1)C[C@@H](O)[C@@H]1[C@@H]2C[C@H](O)[C@]2(C)[C@@H]([C@H](C)CCC(=O)O)CC[C@@H]12 [PalC, 3β-Palmitylamido-7α,12α-dihydroxy-5β-cholan-24-oic Acid]
[1]
  new cholesterol crystals during incubation: no cholesterol crystals were seen
[2]
  behaviour of animals in the course of treatment: behaved normally
[2]; bile taken on second day 4 hours after application
  presence in gallbladder bile by TLC (absorbed and excreted into bile): presence of PalC in the bile
[3]; [7]
  cholesterol mass on day 14 reduced by: 17%
[3]; 20% of Na taurocholate replaced by test compound, 14 days of incubation
  total cholesterol crystal mass reduced by: 53%
[3]; test compound added to whole model bile at 20% of bile salts (F), 14 days of incubation
  total crystal mass reduced by: 51%
[4]; [7]
  crystal growth rate reduced by: 70%
[4]; 20% of Na taurocholate replaced by test compound
  cholesterol crystal growth rate reduced by: 67%
[4]; [8]
  cholesterol crystal growth rate reduced by: 59%
[5]; [9]
  nucleation time (crystal observation time) prolonged by: 167%
[5]
  effect on nucleation time versus control solution: prolongation of the nucleation time
[5]; [8]
  nucleation time (crystal observation time) prolonged by: 200%

## CCCCCCCCCCCCCCCCCC(=O)N[C@H]1CC[C@@]2(C)[C@@H](C1)C[C@@H](NC(=O)CCCCCCCCCCCCCCCCC)[C@@H]1[C@@H]2CC[C@]2(C)[C@@H]([C@H](C)CCC(=O)O)CC[C@@H]12 [distearoyl ursodeoxycholate, 3β,7α-Distearylamido-5β-ursodeoxycholan-24-oic Acid]
[5]; 20 mole % of NaTC replaced, 37° C.
  retardation of cholesterol crystallization (nucleation time) versus control model bile and equimolar cholic acid: particularly effective

## C[C@H](CCC(=O)O)[C@H]1CC[C@H]2[C@@H]3[C@@H](O)C[C@@H]4C[C@H](O)CC[C@]4(C)[C@H]3CC[C@]12C [ursodeoxycholic acid]
[6]
  share of biliary bile acids: 30-50%

## CCCCCCCCCCCCCC(=O)N[C@H]1CC[C@@]2(C)[C@@H](C1)C[C@@H](O)[C@@H]1[C@@H]2C[C@H](O)[C@]2(C)[C@@H]([C@H](C)CCC(=O)O)CC[C@@H]12 [Example C14, 3β-Myristylamido-7α,12α-dihydroxy-5β-cholan-24-oic Acid]
[5]
  effect on nucleation time versus control solution: did not prolong the nucleation time

## CCCCCCCCCCCCCCCCCCCC(=O)N[C@H]1CC[C@@]2(C)[C@@H](C1)C[C@@H](O)[C@@H]1[C@@H]2C[C@H](O)[C@]2(C)[C@@H]([C@H](C)CCC(=O)O)CC[C@@H]12 [C20 conjugate, 3β-Arachidylamido-7α,12α-dihydroxy-5β-cholan-24-oic Acid]
[3]; 20 mole percent of NaTC replaced, 14 days of incubation
  final cholesterol crystal mass, % of the control: 38%
[5]; [9]
  nucleation time (crystal observation time) prolonged by: more than 360%
[5]
  effect on nucleation time versus control solution: prolongation of the nucleation time
